From ChEMBL document CHEMBL1156955 (Bioorg Med Chem Lett, 2010)

Key:
[1] = Drug level in plasma of nude mouse bearing human MDA-MB-361 cells at 25 mg/kg, iv after 8 hrs; type: ADME, organism-based; parameters: dose 25 mg/kg, route intravenous; conditions: read-out: Drug uptake
[2] = Volume of distribution in mouse at 5 mg/kg, iv; type: ADME, organism-based; parameters: dose 5 mg/kg, route intravenous; conditions: in vivo
[3] = AUC (0 to infinity) in mouse at 5 mg/kg, iv; type: ADME, organism-based; parameters: time infinity, dose 5 mg/kg, route intravenous; conditions: plasma
[4] = Drug level in tumor of human MDA-MB-361 cells xenografted nude mouse at 25 mg/kg, iv after 8 hrs; type: ADME, organism-based, Neoplasm; parameters: dose 25 mg/kg, route intravenous; conditions: read-out: Drug uptake

Q: What does the source list for `CC(C)N1CCN(C(=O)c2ccc(NC(=O)Nc3ccc(-c4nc(C5CCOCC5)nc(N5C6CCC5COC6)n4)cc3)cc2)CC1`?
A: concentration at 8 h [1]: 2160 ng/mL; Vd [2]: 1.3 L/kg; AUC(0-inf) [3]: 16700 ng·h/mL; concentration at 8 h [4]: 2470 ng/mL
